System: P12-Ichikawa
Test: cell viability relative to DMSO control; higher = less cytotoxic
Conditions: 48 h
In short: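 Library compounds in DMSO were pin-dosed in an 11-point threefold series (47 μM to 0.79 nM) onto leukemia cells in 1536-well plates (5 μl). Plates held 500 cells/well of NOMO1 or SEM or 1000 cells/well of P12-Ichikawa, each adapted for at least four passages in each medium. Luminescence was read with CellTiter-Glo One after 48 h at 37°C. Viability means the per-plate percentage relative to DMSO wells, using cell-free wells as background.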

[1] = HPLM + 10% dialyzed FBS, 0.000781 µM
[2] = HPLM + 10% dialyzed FBS, 0.00234 µM
[3] = HPLM + 10% dialyzed FBS, 0.00702 µM
[4] = HPLM + 10% dialyzed FBS, 0.0211 µM
[5] = HPLM + 10% dialyzed FBS, 0.0632 µM
[6] = HPLM + 10% dialyzed FBS, 0.19 µM
[7] = HPLM + 10% dialyzed FBS, 0.569 µM
[8] = HPLM + 10% dialyzed FBS, 1.71 µM
[9] = HPLM + 10% dialyzed FBS, 5.12 µM
[10] = HPLM + 10% dialyzed FBS, 15.4 µM
[11] = HPLM + 10% dialyzed FBS, 46.1 µM
[12] = RPMI 5 mM glucose + 10% FBS, 0.000781 µM
[13] = RPMI 5 mM glucose + 10% FBS, 0.00234 µM
[14] = RPMI 5 mM glucose + 10% FBS, 0.00702 µM
[15] = RPMI 5 mM glucose + 10% FBS, 0.0211 µM
[16] = RPMI 5 mM glucose + 10% FBS, 0.0632 µM
[17] = RPMI 5 mM glucose + 10% FBS, 0.19 µM
[18] = RPMI 5 mM glucose + 10% FBS, 0.569 µM
[19] = RPMI 5 mM glucose + 10% FBS, 1.71 µM
[20] = RPMI 5 mM glucose + 10% FBS, 5.12 µM
[21] = RPMI 5 mM glucose + 10% FBS, 15.4 µM
[22] = RPMI 5 mM glucose + 10% FBS, 46.1 µM

## CN1\N=N/C2=C(N=C[N]2C1=O)C(N)=O
[1]
  cell viability: 127%
[2]
  cell viability: 124%
[3]
  cell viability: 125%
[4]
  cell viability: 121%
[5]
  cell viability: 128%
[6]
  cell viability: 125%
[7]
  cell viability: 134%
[8]
  cell viability: 127%
[9]
  cell viability: 128%
[10]
  cell viability: 115%
[11]
  cell viability: 88.8%

## O=[S+]([O-])(/N=C/c1c(O)ccc2ccccc12)c1cccs1
[1]
  cell viability: 109%
[2]
  cell viability: 113%
[3]
  cell viability: 116%
[4]
  cell viability: 120%
[5]
  cell viability: 120%
[6]
  cell viability: 120%
[7]
  cell viability: 117%
[8]
  cell viability: 122%
[9]
  cell viability: 124%
[10]
  cell viability: 103%
[11]
  cell viability: 84.6%
[12]
  cell viability: 119%
[13]
  cell viability: 123%
[14]
  cell viability: 130%
[15]
  cell viability: 115%
[16]
  cell viability: 120%
[17]
  cell viability: 120%
[18]
  cell viability: 133%
[19]
  cell viability: 123%
[20]
  cell viability: 132%
[21]
  cell viability: 123%
[22]
  cell viability: 125%
RPMI 5 mM glucose + 10% dialyzed FBS, 0.000781 µM
  cell viability: 117%
RPMI 5 mM glucose + 10% dialyzed FBS, 0.00234 µM
  cell viability: 121%
RPMI 5 mM glucose + 10% dialyzed FBS, 0.00702 µM
  cell viability: 126%
RPMI 5 mM glucose + 10% dialyzed FBS, 0.0211 µM
  cell viability: 125%
RPMI 5 mM glucose + 10% dialyzed FBS, 0.0632 µM
  cell viability: 124%
RPMI 5 mM glucose + 10% dialyzed FBS, 0.19 µM
  cell viability: 124%
RPMI 5 mM glucose + 10% dialyzed FBS, 0.569 µM
  cell viability: 120%
RPMI 5 mM glucose + 10% dialyzed FBS, 1.71 µM
  cell viability: 122%
RPMI 5 mM glucose + 10% dialyzed FBS, 5.12 µM
  cell viability: 121%
RPMI 5 mM glucose + 10% dialyzed FBS, 15.4 µM
  cell viability: 109%
RPMI 5 mM glucose + 10% dialyzed FBS, 46.1 µM
  cell viability: 103%

## NC(=O)c1cnc(-c2ccc(C3(N)CCC3)cc2)c(-c2ccccc2)c1
[12]
  cell viability: 118%
[13]
  cell viability: 126%
[14]
  cell viability: 115%
[15]
  cell viability: 111%
[16]
  cell viability: 115%
[17]
  cell viability: 134%
[18]
  cell viability: 121%
[19]
  cell viability: 116%
[20]
  cell viability: 111%
[21]
  cell viability: 80.4%
[22]
  cell viability: 67.9%

## Clc1ccccc1C(c1ccccc1)(c1ccccc1)n1cccn1
[1]
  cell viability: 123%
[2]
  cell viability: 134%
[3]
  cell viability: 119%
[4]
  cell viability: 129%
[5]
  cell viability: 125%
[6]
  cell viability: 130%
[7]
  cell viability: 122%
[8]
  cell viability: 126%
[9]
  cell viability: 128%
[10]
  cell viability: 116%
[11]
  cell viability: 114%

From the supplement of paper PMC11451515
